According to patent US10695314B2, “Antimicrobial composition containing 7,10-epoxyoctadeca-7,9-dienoic acid as active ingredient” (priority 2016, dated 2020):
Converted amounts (≈) assume the structure as drawn. Where two headings read alike, the source gives them in different places.

How the values were obtained:
[1] = system: MRSA 01ST001 (MDRSA 01ST001); test: Antimicrobial activity on solid medium (clear zone around filter paper); format: cell-based, Staphylococcus aureus; conditions: for clear zone on agar plate: 100 μg per filter paper, 37° C., 2 to 3 days, FIG. 1
Protocol: (§1) First, 1.5% of potato agar was added to the YDP medium, sterilized, and then an agar plate hardened by pouring about 20 ml in a plastic Petri dish was used. MRSA 01ST001 was diluted to about 107/ml, and then about 500 μl was dispersed evenly on the agar plate.
(§2) The size of the clear zone around the filter paper shown after the culture at 37° C. for 2 to 3 days after the inoculation was measured to confirm the degree of antimicrobial activity. At this time, vancomycin 100 μg, oxacillin 100 μg, ampicillin 100 μg, streptomycin 100 μg, and penicillin 100 μg were used as control groups.
(§3) The antimicrobial activity can be confirmed with the degree showing the clear zone on the agar plate. It is judged that the larger the clear zone, the higher the antimicrobial activity. The results are illustrated in FIG. 1 and FIG. 2.
(§4) The results are illustrated in FIG. 3. The experiment was carried out in the same manner as in Example 1-2.

[2] = system: Staphylococcus aureus ATCC 29213; test: as above; format: cell-based; conditions: FIG. 3
Protocol: as §1, §2, §3, §4

S. typhimurium KCTC 2515 = test: Checker board synergy evaluation (MIC, FICI); format: cell-based, Salmonella typhimurium; conditions: Salmonella enterica, 24 h; strain 2515; single agent
Protocol: Interactions of the selected antibiotic or 7,10-EODA of the present invention were evaluated using the checker board method (Nair et al. 2015). […] To obtain various concentrations of 7,10-EODA and antibiotic combination, a 2-fold dilution of the beta-lactam antibiotic was placed on the same plate. About 10^5 CFU/mL of microorganisms to be tested was added to the wells of each plate, and cultured for 24 hours at 37° C. without shaking. At the end of the culture period, cell growth was measured at OD600 using a spectrophotometer. Each 7,10-EODA and antibiotic combination was repeated at least three times. MIC was identified at the lowest concentration of antibiotics with growth inhibition of 90% or higher. FICAB means fractional inhibitory concentration (FIC) of drug A in the presence of drug B, and FICBA means fractional inhibitory concentration (FIC) of drug B in the presence of drug A. The fractional inhibitory concentration index (FICI) represents the sum of the FIC values of the interacting antibiotics. Interactions are based on FICI values, with FICIs less than 0.5 being categorized as synergy, FICIs 0.5 to 4 being indifferent, and FICIs greater than 4 being antagonistic. The degree of synergy was also measured based on the conventional Bliss independence model of synergy (Morones-Ramirez et al. 2013). Specifically, the degree of synergy was calculated by the following equation: S indicates degree of synergy, fAB indicates bacterial growth (optical density) when 7,10-EODA and antibiotics are used in combination, fA0 and f0B represent bacterial growth for antibiotic alone or 7,10-EODA single treatment, respectively. f00 represents bacterial growth in the absence of drug. The degree of synergy is divided into three categories based on the S value, where 0 means neutral, greater than 0 means synergism, and less than 0 means antagonism. S=(fA0/f00)(f0B/f00)−(fAB/f00) […]

MDRSA 01ST001 [3] = conditions: 125 μg/ml
HepG2 animal cells = system: HepG2 animal cells
Protocol: Simple toxicity tests were performed for the four components of 7,10-EODA, DOD, oleic acid, and DMSO. The target cells were HepG2 animal cells and the results were obtained by MTT assay.

MDRSA 01ST001 [4] = test: microbe, parasite or virus in culture; conditions: Staphylococcus aureus
MDRSA 01ST001 [5] = test: Agar disk diffusion analysis, zone of inhibition (ZOI); format: cell-based, Staphylococcus aureus; conditions: for antimicrobial activity, disk diffusion: 100 μg each, FIG. 4
Protocol: (§5) For synergy effect screening, a 0.1 mL aliquot of MRSA or MSSA strain (5×10^5 CFU/mL) cultured in a log-phase on TSA plates was inoculated. […] A disk including DMSO alone or 7,10-EODA alone (¼×MIC) was used as a control group. The plates were cultured under conditions of […] and 24 hours, and a synergistic effect was observed when the disk periphery including both antibiotic and 7,10-EODA was at least 5 mm in zone of inhibition (ZOI).
Specifically, in order to compare the antimicrobial activity of the 7,10-EODA or the antibiotic of the present invention against the MDRSA 01ST001 strain, the MDRSA 01ST001 strain was treated with the 7,10-EODA (E 100 μg) of the present invention, streptomycin (S, 100 μg), ampicillin (A, 100 μg), oxacillin (O, 100 μg), vancomycin (V, 100 μg), or penicillin (P, 100 μg), according to the method described in Experimental Example 5.
(§6) Specifically, the minimal inhibitory concentration (MIC) was measured according to the method of Experimental Example 4 above, and the degree of inhibition (Agar diffusion analysis) (zone of inhibition; ZOI) was measured according to the method of Experimental Example 5 above.

MRSA strain 093 = test: Checker board synergy evaluation (MIC, FICI); format: cell-based; conditions: Staphylococcus aureus, 24 h
Protocol: (§7) Interactions of the selected antibiotic or 7,10-EODA of the present invention were evaluated using the checker board method (Nair et al. 2015). […] To obtain various concentrations of 7,10-EODA and antibiotic combination, a 2-fold dilution of the beta-lactam antibiotic was placed on the same plate. About 10^5 CFU/mL of microorganisms to be tested was added to the wells of each plate, and cultured for 24 hours at 37° C. without shaking. At the end of the culture period, cell growth was measured at OD600 using a spectrophotometer. Each 7,10-EODA and antibiotic combination was repeated at least three times. MIC was identified at the lowest concentration of antibiotics with growth inhibition of 90% or higher. FICAB means fractional inhibitory concentration (FIC) of drug A in the presence of drug B, and FICBA means fractional inhibitory concentration (FIC) of drug B in the presence of drug A. The fractional inhibitory concentration index (FICI) represents the sum of the FIC values of the interacting antibiotics. Interactions are based on FICI values, with FICIs less than 0.5 being categorized as synergy, FICIs 0.5 to 4 being indifferent, and FICIs greater than 4 being antagonistic. The degree of synergy was also measured based on the conventional Bliss independence model of synergy (Morones-Ramirez et al. 2013). Specifically, the degree of synergy was calculated by the following equation: S indicates degree of synergy, fAB indicates bacterial growth (optical density) when 7,10-EODA and antibiotics are used in combination, fA0 and f0B represent bacterial growth for antibiotic alone or 7,10-EODA single treatment, respectively. f00 represents bacterial growth in the absence of drug. The degree of synergy is divided into three categories based on the S value, where 0 means neutral, greater than 0 means synergism, and less than 0 means antagonism. S=(fA0/f00)(f0B/f00)−(fAB/f00)
(§8) The antimicrobial activity synergistic effects according to the combination treatment of 7,10-EODA and each antibiotic on methicillin-resistant Staphylococcus aureus (MRSA) strains 085, 093, 120, 136, and 165, MDRSA 01ST001, which is a multidrug-resistant Staphylococcus aureus (MDRSA) strain, E. coli ATCC 8739, and S. typhimurium KCTC 2515 were confirmed. […] Fractional inhibitory concentration indices (FICI) values accordingly were confirmed.

E. coli ATCC 8739 = test: Checker board synergy evaluation (MIC, FICI); format: cell-based; conditions: Escherichia coli, ATCC8739, 24 h; strain 8739; single agent
Protocol: as §7, §8

MDRSA 01ST001 [6] = test: Checker board synergy evaluation (MIC, FICI); format: cell-based; conditions: Staphylococcus aureus, 24 h; strain 001; single agent
Protocol: as §7, §8

MRSA strain 165 = test: Checker board synergy evaluation (MIC, FICI); format: cell-based; conditions: Staphylococcus aureus, 24 h
Protocol: as §7, §8

MRSA strain 085 = test: Checker board synergy evaluation (MIC, FICI); format: cell-based; conditions: Staphylococcus aureus, 24 h
Protocol: as §7, §8

MRSA strain 120 = test: Checker board synergy evaluation (MIC, FICI); format: cell-based; conditions: Staphylococcus aureus, 24 h
Protocol: as §7, §8

MRSA strain 136 = test: Checker board synergy evaluation (MIC, FICI); format: cell-based; conditions: Staphylococcus aureus, 24 h
Protocol: as §7, §8

MDRSA 01ST001 [7] = test: microbe, parasite or virus in culture; format: cell-based; conditions: Staphylococcus aureus, 12 h
From the text: The results are illustrated in FIG. 11.

[8] = system: Staphylococcus aureus ATCC 29213; test: Minimal inhibitory concentration (MIC), broth microdilution per CLSI; format: cell-based; conditions: Staphylococcus aureus, ATCC29213; strain 29213 (ATCC 29213); antibiotic alone; read-out: MIC
Protocol: The minimum inhibitory concentration (MIC) of antibiotics and the activity of 7,10-EODA of the present invention against Staphylococcus aureus strains were measured according to the CLSI guideline (CLSI document M100-517, 2007). Specifically, each antibiotic or 7,10-EODA was diluted 2-fold (200-0.97 μg/mL) by adding MHB (Mueller-Hinton Broth) to a 96-well microtiter plate. In the mid-exponential phase (0.5 OD600), the culture was diluted 10-fold with MHB and 0.1 mL aliquots of the diluent were added to wells containing the serially diluted test reagent and cultured at 37° C. for 12 hours. About the end of the culture period, the cell density was measured at an optical density of 600 nm (OD600) using a […].
as §6

[9] = system: Staphylococcus aureus ATCC 29213; test: Agar disk diffusion analysis, zone of inhibition (ZOI); format: cell-based; conditions: strain 29213
Protocol: as §5, §6

MDRSA 01ST001 [10] = test: Minimal inhibitory concentration (MIC), broth microdilution per CLSI; conditions: Staphylococcus aureus

CCCCCCCCc1ccc(CCCCCC(=O)O)o1 [7,10-EODA, 7,10-epoxyoctadeca-7,9-dienoic acid]
clear zone on agar plate [1]: clear zone similar in size to vancoclin
clear zone size with treatment concentration ([1]; 50, 100, 200 and 400 μg, FIG. 2): improved in a concentration-dependent manner
antimicrobial activity on solid medium ([1]; MDRSA 01ST001, FIG. 3): higher antimicrobial activity than Staphylococcus aureus ATCC 29213
antimicrobial activity on solid medium [2]: antimicrobial activity was exhibited
MIC (S. typhimurium KCTC 2515): 500 µg/mL
time until MDRSA 01ST001 was completely killed (MDRSA 01ST001 [3]): ≤ 10 min
toxicity as a whole (HepG2 animal cells): not highly toxic
viability at 62.5 µg/mL (MDRSA 01ST001 [4]; 10 min, read-out: residual viable microorganism concentration compared to the control): < 10%
inhibition at 15.6 µg/mL (MDRSA 01ST001 [4]; 4 h, read-out: decrease of residual viable microorganism concentration compared to the control): ≥ 50%
antimicrobial activity, disk diffusion (MDRSA 01ST001 [5]): showed the antimicrobial activity
antimicrobial activity according to concentration (MDRSA 01ST001 [5]; 50, 100, 200 and 400 μg, FIG. 5): high in a concentration-dependent manner
MIC (MRSA strain 093): 125 µg/mL
MIC (E. coli ATCC 8739): 500 µg/mL
MIC (MDRSA 01ST001 [6]): 125 µg/mL
MIC (MRSA strain 165): 125 µg/mL
MIC (MRSA strain 085): 125 µg/mL
MIC (MRSA strain 120): 125 µg/mL
MIC (MRSA strain 136): 125 µg/mL
MIC90 (MDRSA 01ST001 [7]; read-out: MIC90 concentration): ≤ 15.6 µg/mL
inhibition at 15.6 µg/mL (MDRSA 01ST001 [7]; read-out: reduction of residual viable microorganisms compared to the control): > 90%

CC1(C)S[C@@H]2[C@H](NC(=O)[C@H](N)c3ccccc3)C(=O)N2[C@H]1C(=O)O [AMP, ampicillin]
clear zone on agar plate [1]: no clear zone appeared
MIC (S. typhimurium KCTC 2515): 0.6 µg/mL
MIC [8]: 1.97 µg/mL (≈ 5.64 µM)
ZOI without 7.10-EODA ([9]; antibiotic ½×MIC alone): 16.9 ± 0.3 mm
ZOI with 7.10-EODA ([9]; antibiotic ½×MIC with 7,10-EODA ¼×MIC): 17.0 mm
antimicrobial activity, disk diffusion (MDRSA 01ST001 [5]): resistant
antimicrobial activity effect in combination with 7,10-EODA (MDRSA 01ST001 [5]; antibiotic treated in combination with 7,10-EODA, Table 1 summary): strong antimicrobial activity effect
ZOI without 7.10-EODA (MDRSA 01ST001 [5]; strain 001, antibiotic ½×MIC alone): 7.3 ± 0.2 mm
ZOI with 7.10-EODA (MDRSA 01ST001 [5]; strain 001, antibiotic ½×MIC with 7,10-EODA ¼×MIC): 14.2 mm
MIC (MRSA strain 093; strain 093, single agent, read-out: MIC): 31.2 µg/mL
MIC (E. coli ATCC 8739): 0.6 µg/mL
MIC (MDRSA 01ST001 [6]): 1000 µg/mL
MIC (MRSA strain 165; strain 165, single agent, read-out: MIC): 2000 µg/mL
MIC (MRSA strain 085; strain 085, single agent, read-out: MIC): 1000 µg/mL
MIC (MRSA strain 120; strain 120, single agent, read-out: MIC): 250 µg/mL
MIC (MRSA strain 136; strain 136, single agent, read-out: MIC): 1000 µg/mL
MIC (MDRSA 01ST001 [10]): 1000 µg/mL (≈ 2860 µM)
